These results are taken from patent publication US20250302080A1, “SWEETNESS AND/OR FLAVOR ENHANCER” (AJINOMOTO CO., INC., priority 2022, published 2025).

Structures are written as SMILES.

Experiment [1] can be described thus: Sensory evaluation of black tea au lait flavor intensity (Experimental Example 15). To be noted: added alone; for black tea au lait flavor-enhancing effect (in words): 0.0001-1000 ppb. Here is the method: Instant black tea au lait powder (product name: Blendy (registered trademark) Stick Black Tea Au Lait (Ajinomoto AGF, Inc.)) was prepared according to the instructions, and then diluted 1.2 times with filtered water to prepare negative control black tea au lait.
When the carbohydrate content of Blendy (registered trademark) Stick Black Tea Au Lait is calculated as the total sucrose content, the negative control black tea au lait contains 5.2 g of sucrose per 100 g.
A sensory evaluation of sweetness intensity and black tea au lait flavor intensity was performed for each sample by a panel of three experts according to the following evaluation criteria.
Sweetness intensity and black tea au lait flavor intensity were each evaluated by 0.0 to 10.0 point based on the following reference samples (negative control (hereinafter referred to as NC) (0.0 point); reference 1 (hereinafter referred to as R1) (5.0 points); reference 2 (hereinafter referred to as R2) (10.0 points)). The average score (rounded to two decimal places) of each expert panelist was calculated. An average score of 3.0 points or more was considered to be functional. • NC (0.0 point): black tea au lait (product name: Black Tea Au Lait, Ajinomoto AGF, Inc.) prepared according to the instructions, and then diluted 1.2 times with filtered water (i.e., negative control black tea au lait). • R1 (5.0 points): with 0.26 g of sugar added per 99.74 g of NC. • R2 (10.0 points): with 0.52 g of sugar added per 99.48 g of NC.

A short description of experiment [2]: Sensory evaluation of sweetness intensity in RebA solution (Experimental Example 12). To be noted: added alone, 3.0 points or more. How it is done:
A negative control RebA solution (0.073 wt % […] solution) was prepared by dissolving RebA in filtered water.
(§1) A sensory evaluation of sweetness intensity was performed for each sample by a panel of three experts according to the following evaluation criteria.
(§2) Sweetness intensity was evaluated by 0.0 to 10.0 points based on the following reference samples (negative control (hereinafter referred to as NC) (0.0 point); reference 1 (hereinafter referred to as R1) (5.0 points); reference 2 (hereinafter referred to as R2) (10.0 points)). The average score (rounded to two decimal places) of each expert panelist was calculated. An average score of 3.0 points or more was considered to be functional. • NC (0.0 point): 0.073 wt % RebA solution (solvent: filtered water) • R1 (5.0 points): 0.077 wt % RebA solution (solvent: filtered water) • R2 (10.0 points): 0.080 wt % RebA solution (solvent: filtered water)

Experiment [3] is described as follows: Sensory evaluation of sweetness intensity in orange drink (Experimental Examples 1-5). To be noted: added alone, score (average) of 3.0 points or more. How it is done: A negative control orange drink was prepared by diluting an orange drink (product name: Bireley's Orange, 20% wt % orange juice, Asahi Soft Drinks Co., Ltd.) 1.2 times with filtered water.
When the carbohydrate content of Bireley's Orange is calculated as the total sucrose content, the negative control orange drink contains 9.17 g of sucrose per 100 g.
(§3) A sensory evaluation of sweetness intensity was performed for each sample by a panel of four experts according to the following evaluation criteria.
Sweetness intensity was evaluated by 0.0 to 10.0 point based on the following reference samples (negative control (hereinafter referred to as NC) (0.0 point); reference 1 (hereinafter referred to as R1) (5.0 points); reference 2 (hereinafter referred to as R2) (10.0 points)). The average score (rounded to two decimal places) of each expert panelist was calculated. An average score of 3.0 points or more was considered to be functional. • NC (0.0 point): orange drink (trade name: Bireley's Orange, Asahi Soft Drinks Co., Ltd.) diluted 1.2 times with filtered water (i.e., negative control orange drink). • R1 (5.0 points): with 0.46 g of sucrose added per 99.54 g of NC. • R2 (10.0 points): with 0.92 g of sucrose added per 99.08 g of NC.
A sensory evaluation of sweetness intensity was performed for each sample by a panel of four experts according to the same evaluation criteria as in Experimental Example 1.

Experiment [4] can be described thus: Sensory evaluation of sweetness intensity in RebM solution (Experimental Examples 20-21). To be noted: added alone, 3.0 points or more. How it is done: A negative control RebM solution (0.063 wt % RebM solution) was prepared by dissolving RebM in filtered water.
as §3
Sweetness intensity was evaluated by 0.0 to 10.0 points based on the following reference samples (negative control (hereinafter referred to as NC) (0.0 point); reference 1 (hereinafter referred to as R1) (3.0 points), reference 2 (hereinafter referred to as R2) (5.0 points); reference 3 (hereinafter referred to as R3) (10.0 points)). The average score (rounded to two decimal places) of each expert panelist was calculated. An average score of 3.0 points or more was considered to be functional. • NC (0.0 point): 0.063 wt % RebM solution (solvent: filtered water) • R1 (3.0 points): 0.063 wt % RebM solution (solvent: filtered water)+dodecanoic acid (1 ppb) • R2 (5.0 points): 0.066 wt % RebM solution (solvent: filtered water) • R3 (10.0 points): 0.069 wt % RebM solution (solvent: filtered water)
A sensory evaluation of sweetness intensity was performed for each sample by a panel of four experts according to the same evaluation criteria as in Experimental Example 20.

A short description of experiment [5]: Sensory evaluation of sweetness intensity in aspartame solution (Experimental Example 11). Particulars: added alone, 3.0 points or more. How it is done: A negative control aspartame solution (0.063 wt % aspartame solution) was prepared by dissolving aspartame in filtered water.
as §1
as §2, with “0.063” for “0.073”, “aspartame” for “RebA”, “0.066” for “0.077”, “0.069” for “0.080”

Consider `CC(C)CCC(=O)O` [4-methylpentanoic acid], for which, in experiment [1] (3.0 points or more), the “concentration at which a black tea au lait flavor-enhancing effect was confirmed” value is not below 1 ppb. Besides, the “concentration at which a sweetness-enhancing effect was confirmed” value in experiment [2] is reported as 100 ppb; in experiment [3], not below 10 ppb; in experiment [4], 100 ppb; in experiment [5], 100 ppb.
For `CCCCCCCCCC(=O)O` [decanoic acid], in experiment [1], the “black tea au lait flavor-enhancing effect (in words)” value is reported as “concentration-dependent black tea au lait flavor-enhancing effect”. The “concentration at which a sweetness-enhancing effect was confirmed” value is 10 ppb in experiment [2], not below 0.1 ppb in experiment [3], 10 ppb in experiment [4] and 10 ppb in experiment [5].
`CC1=C(O)C(=O)CC1` [cyclotene]: the “black tea au lait flavor-enhancing effect (in words)” value in experiment [1] is “concentration-dependent black tea au lait flavor-enhancing effect”. In addition, the “concentration at which a sweetness-enhancing effect was confirmed” value in experiment [2] was 10 ppb; in experiment [3] it was not below 0.1 ppb; in experiment [4] it was 10 ppb; in experiment [5], 10 ppb.
